Reference: patent US20190015423A1, “REGULATION OF GENE EXPRESSION BY MODULATING PRIMARY CILIA LENGTH” (THE TRUSTEES OF COLUMBIA UNIVERSITY IN THE CITY OF NEW YORK, priority 2016, published 2019)
“Also recorded” adds a separate entry of the source. Counter-ions that a name gives are not always drawn. Like-named read-outs stand apart in the source and are kept apart here.

Test system: MLO-Y4 osteocytes
Test: High-throughput drug screening of primary cilia length and incidence
Type: cell-based
Description: MLO-Y4 osteocytes were maintained on collagen I-coated dishes in MEMα (Life_Technologies) supplemented with 5% fetal bovine serum (FBS), 5% calf serum (CS), and 1% penicillin/streptomycin (P/S) at 37° C. and 5% CO2. Osteocytes were then seeded onto 384-well collagen-coated plates for 72 hours before fixation. […] These libraries include Tocris, Sigma LOPAC, Selleck Chemical, Prestwick, and Spectrum commercially available compound libraries. All cell seeding and plate handling was performed with the Perkin Elmer cell:explorer workstation.
Cells were fixed in 4% paraformaldehyde and permeabilized with 0.1% Triton-X 100 (Sigma). 10% goat serum (vendor) was used for blocking. Cilia were stained using a monoclonal antibody against acetylated α-tubulin (1:20) from a C3B9 hybridoma cell line, and visualized with A F488 (1:1000, ThermoFisher). Nuclei were visualized with Hoechst. Cells were imaged using a GE INCell 2000 high-throughput imager at 40× magnification. 4 fields of view were taken per well.
Each pair of nuclei and cilia images was first analyzed individually, then the entire population was examined to evaluate each compound's effect on cilia length and incidence. A custom MATLAB script was developed to perform all image analysis. This script first utilizes an enhanced implementation of a watershed transform, which is a segmentation tool which enables detection of similarly shaped overlapping particles in noisy images by the procedural whittling down of pixels found close to the edge of such particles. The augmentation of the algorithm incorporates thresholding for noise removal based on signal intensity and object size, nuclei dilation to exclude non-cellular artifacts, as well as skeletonization of cilia to quantify length. The results of the analysis are number of nuclei, number of cilia, and average cilia length in each image.
Compounds were selected based on deviation from the population mean. Each well was normalized to vehicle control images on each plate, allowing the establishment of a normalized population mean. Hits were chosen based on compounds whose triplicate mean was furthest (based on standard deviation away) from the population mean. […] Compounds were classified based on mechanism of action.
To identify compounds that modulate primary cilia formation a high-throughput platform was developed to automate cell culture, staining, imaging, and analysis, as shown in schematic form in FIG. 18. […] Cells were cultured on 384-well plates, and treated with small molecules with known biologic activity, enabling classification of mechanisms of action. Drug treatment was applied for 16 hours at 10 μM concentration, performed in triplicate, before fixation and immunostaining of primary cilia. Cells were then imaged using the GE INCell 2000 High Content Analyzer, capturing 4 fields of view per well at 40× magnification. Additionally, each plate contains 8 wells of DMSO vehicle control.
A MATLAB script was developed to detect and analyze changes in ciliogenesis. […] A representative exemplary image (FIG. 19A) is cropped to better display features, scale bar represents 30 μm. A custom MATLAB script was used to identify nuclei and cilia for analysis (FIG. 19B). […] Objects are further filtered based on size and signal intensity.
Cilia length and incidence for each field of view were normalized to vehicle control on that individual plate. This allowed development of a normalized population average and standard deviation. […] To control for toxic effects only small molecules with at least 40% viability, based on number of nuclei versus control, were selected as hits. Furthermore, compounds repeated between multiple libraries eliciting the same effect on cilia length or incidence were excluded, such that only one of the repeated compounds was selected as a hit.

[1] = 10 μM, 16 hours, triplicate, normalized to vehicle control, standard deviation away from the population average

| Molecule | Average Length SD Away [1] [SD] | Average Incidence SD Away [1] [SD] | further results |
| --- | --- | --- | --- |
| COc1ccc2oc(-c3ccccc3OC)cc(=O)c2c1 [62 -DIMETHOXYFLAVONE] | 1.745 |  |  |
| O=C(C[S+]([O-])Cc1ccco1)NC/C=C\COc1cc(CN2CCCCC2)ccn1 (stereo not shown) [Lafutidine] |  | 1.619 |  |
| Cc1cccc(Cc2c[nH]cn2)c1C [Detomidine HCl] |  | 1.922 |  |
| CC(NC(C)(C)C)C(=O)c1cccc(Cl)c1 (stereo not shown) [Amfebutamone (Bupropion), Amfebutamone] |  | 1.605 |  |
| CCCOc1ccc(C(=O)OCCN(CC)CC)cc1N [Proparacaine HCl] |  | 1.523 |  |
| CCCOc1ccc2nc(NC(=O)OC)[nH]c2c1 [Oxibendazole] |  | 4.084 |  |
| NC(=O)c1ncn([C@@H]2O[C@H](CO)[C@@H](O)[C@H]2O)c1N [Acadesine] |  | 1.847 |  |
| CCc1c2c(nc3ccc(OC(=O)N4CCC(N5CCCCC5)CC4)cc13)-c1cc3c(c(=O)n1C2)COC(=O)[C@]3(O)CC.Cl [CPT 11] | 1.894 | 1.633 |  |
| O=C[C@H](O)[C@@H](O)[C@H](O)[C@H](O)CO [Dextrose (D-glucose), D-glucose] |  | 1.518 |  |
| COc1cc(OC)c(C=C2C(O)=Nc3ccccc32)c(OC)c1 [IC 261] | 1.651 |  |  |
| CC(C)C(=O)Nc1ccc([N+](=O)[O-])c(C(F)(F)F)c1 [Flutamide (Eulexin), Flutamide] |  | 2.035 |  |
| COc1ccc2c(c1OC)OC[C@@H](c1ccc(OC)c(OC)c1OC)C2 [DUARTIN DIMETHYL ETHER] | 2.07 |  |  |
| Br.C=CCN1CCc2cc(O)c(O)cc2C(c2ccccc2)C1 (stereo not shown) [SKF 77434 hydrobromide] | 1.527 |  |  |
| COC(=O)[C@H]1[C@H]2C[C@@H]3c4[nH]c5cc(OC)ccc5c4CCN3C[C@H]2C[C@@H](OC(=O)c2cc(OC)c(OC)c(OC)c2)[C@@H]1OC [RESERPINE] | 1.972 |  |  |
| Cn1ccc2cc3c(cc21)CCN3C(=O)Nc1cccnc1 [SB 206553 hydrochloride] | 1.704 |  |  |
| CC(C)(C)NCC(O)c1ccccc1Cl (stereo not shown) [TULOBUTEROL] | 2.06 |  |  |
| MONENSIN SODIUM | 1.722 |  |  |
| O=C1C=C2C=C[C@@H]3C[C@@]2(O1)[C@H]1CCCCN31 [SECURININE] | 1.502 |  |  |
| CCC(C)n1ncn(-c2ccc(N3CCN(c4ccc(OCC5COC(Cn6cncn6)(c6ccc(Cl)cc6Cl)O5)cc4)CC3)cc2)c1=O (stereo not shown) [ITRACONAZOLE] | 2.154 |  |  |
| C#CCC(Cc1cnc2nc(N)nc(N)c2n1)c1ccc(C(=O)N[C@@H](CCC(=O)O)C(=O)O)cc1 (stereo partly shown) [Pralatrexate(Folotyn), Pralatrexate] | 2.105 | 2.193 |  |
| Cn1c(=O)c2[nH]cnc2n(C)c1=O.Cn1c(=O)c2[nH]cnc2n(C)c1=O.NCCN [Aminophylline ethylenediamine] |  | 2.59 |  |
| O=NN(CCCl)C(=O)NC1CCCCC1 [Lomustine (CeeNU), Lomustine] |  | 2.228 |  |
| CCCCc1oc2ccccc2c1C(=O)c1cc(I)c(OCCN(CC)CC)c(I)c1 [Amiodarone HCl] |  | 3.38 |  |
| CCOC(=O)[C@H](CCc1ccccc1)N[C@H]1CS[C@H](c2cccs2)CN(CC(=O)O)C1=O [Temocapril HCl] |  | 1.877 |  |
| CC1(C)C(=O)C=C[C@]2(C)[C@H]3CC[C@@]4(C)[C@H](c5ccoc5)OC(=O)[C@H]5O[C@]54[C@]3(C)C(=O)C[C@@H]12 [DEACETOXY-7-OXOGEDUNIN] | 1.843 |  |  |
| CN(C)CCc1c[nH]c2ccc(C[C@H]3COC(=O)N3)cc12 [Zolmitriptan (Zomig), Zolmitriptan] |  | 1.521 |  |
| COc1cc2c(cc1C(F)(F)F)N(C(=O)Nc1cc(F)cc(-c3cccnc3)c1)CC2 [SB 228357] | 2.332 |  |  |

| Molecule | Average Length SD Away [1] [SD] | Average Incidence SD Away [1] [SD] | further results |
| --- | --- | --- | --- |
| Cc1cc2c(s1)Nc1ccccc1N=C2N1CCN(C)CC1 [Olanzapine (Zyprexa), Olanzapine] |  | 1.609 |  |
| CN/C(=N/CCSCc1nc[nH]c1C)NC#N [Cimetidine (Tagamet), Cimetidine] |  | 1.562 |  |
| O=C1Cc2c([nH]c3ccc(Br)cc23)-c2ccccc2N1 [Kenpaullone] | 3.28 |  |  |
| CN1Cc2ccccc2[C@@H]2c3cccc4[nH]cc(c34)C[C@H]21 [CY 208-243] | 2.567 |  |  |
| Cc1cccc(C)c1NC(=O)CN1CCCC1=O [Nefiracetam (Translon), Nefiracetam] |  | 1.552 |  |
| O=C(O)/C=C/c1ccc(Cn2ccnc2)cc1 [Ozagrel HCl] |  | 1.683 |  |
| S(−)-Atenolol | 2.057 | 2.177 |  |
| C=C(C)[C@H]1CC=C(C(=O)O)CC1 [PERILLIC ACID (−)] | 2.196 |  |  |
| CN(Cc1cnc2nc(N)nc(N)c2n1)c1ccc(C(=O)N[C@@H](CCC(=O)O)C(=O)O)cc1 (racemic) [Amethopterin (RS)] | 2.927 |  |  |
| C[C@@H](CN1CCC(n2c(=O)[nH]c3cc(Cl)ccc32)CC1)NC(=O)c1ccc2ccccc2c1 [VU 0155069] | 1.618 |  |  |
| CN1[C@@H]2CC[C@H]1C[C@@H](OC(=O)c1c[nH]c3ccccc13)C2 [Tropisetron] |  | 1.694 |  |
| CCn1cc(C(=O)O)c(=O)c2cc(F)c(N3CCN(C)CC3)cc21 [Pefloxacin mesylate] |  | 1.682 |  |
| CCCCOc1ccc(CC(=O)NO)cc1 [Bufexamac] | 3.676 | 2.326 | classification as hit increasing cilia length in the screen (10 μM, 16 hours, hit = 1.5 standard deviation above population average, at least 40% viability): listed as a hit increasing length; also recorded: listed as hits |
| CC(=O)Nc1ccccc1 [Acetanilide (Antifebrin), Acetanilide] |  | 1.696 |  |
| CC1=NCCc2c1[nH]c1cc(O)ccc21.Cl [HARMALOL HYDROCHLORIDE] | 1.629 |  |  |
| CC(C)(C)CC(C)(C)c1ccc(OCCOCC[N+](C)(C)Cc2ccccc2)cc1 [Benzethonium chloride] |  |  | Average Length SD Away: 5.179 SD |
| CC[C@@]1(O)C(=O)OCc2c1cc1n(c2=O)Cc2cc3cc(O)ccc3nc2-1 [10-HYDROXYCAMPTOTHECIN] | 2.11 |  |  |
| CC(=O)C(=Cc1ccccc1)CC(=O)O [LEVULINIC ACID 3-BENZYLIDENYL-] | 2.3613 |  |  |
| Oc1ccc(OCc2ccccc2)cc1 [MONOBENZONE] | 1.914 |  |  |
| Gabexate mesylate |  | 1.87 |  |
| c1ccc2c(c1)[I+]c1ccccc1-2 [Diphenyleneiodonium chloride] | 2.603 |  |  |
| CC(=O)O[C@H]1C[C@@H](OC(C)=O)C(C)(C)[C@@H]2C[C@@H](OC(C)=O)[C@@]3(C)C4=CC(=O)O[C@@H](c5ccoc5)[C@]4(C)CC[C@@H]3[C@@]12C [DEOXYKHIVORIN] | 1.681 |  |  |
| CON [METHOXYAMINE HYDROCHLORIDE] | 1.91 |  |  |
| Nc1nc(N)nc(-c2cc(Cl)ccc2Cl)n1 [Irsogladine] |  | 1.543 |  |
| CC(=O)O[C@]1(C(C)=O)CC[C@H]2[C@@H]3C[C@H](C)C4=CC(=O)CC[C@]4(C)[C@H]3CC[C@@]21C [Medroxyprogesterone acetate] |  | 2.659 |  |
| CC(C[N+](C)(C)C)OC(N)=O (stereo not shown) [Bethanechol chloride] |  | 1.764 |  |
